Data taken from US7402388B2, “Expression analysis of FKBP54 in assessing prostate cancer therapy” (Wyeth, priority 2000, dated 2008).
Like-named read-outs stand apart in the source and are kept apart here.

Columns and labels:
prostate cancer cells = assay: Sensitivity of prostate cancer cells to CCI-779; type: cell-based; conditions: some prostate cancer cells, data not shown
LNCaP cells = conditions: MTT assay, FIG. 1A
Protocol: (§1) Human prostatic cancer cell lines LNCaP, DU-145, PC-3, and Tsu-prl were obtained from ATCC. LNCaP cancer cells were maintained in humidified atmosphere of 5% CO2 in air in RPMI 1640 medium supplemented with 10% fetal calf serum (Life Technologies, Inc, Rockville, Md.), 3 mM L-glutamine, 100 μg/ml streptomycin and 100 units/ml penicillin. Other lines were maintained in DMEM containing 3 mM L-glutamine, 100 μg/ml streptomycin, 100 units/ml penicillin, and 10% FCS in humidified atmosphere of 5% CO2. To examine the effects of steroids, cells were cultured in RPMI 1640 medium containing 5% FCS treated with dextran coated charcoal (Hyclone, Logan, Utah) for 24 hs before treatment. Cells were grown in the absence or presence of 10 nM DHT for 0, 2, 4, 6, 12, 24, 48, and 72 hs. They were collected and frozen at each time point. Two hundred μl of medium were collected from each flask for PSA assay.
To verify the effect of DHT on the growth of LNCaP cells, cells at 3,000 cells/well were plated in 96-well plates for 24 hs before treatment with DHT. After 72 hs, MTT was added to each well and incubated at 37° C. for four hs. At the end of incubation, the supernatant was removed and 100 μl DMSO was added to each well to dissolve […]. Plates were subsequently read in a plate reader at […].

PSA [1] = tested on: PSA
FKBP54 [2] = assay: Western blot analysis of FKBP54 protein in LNCaP cells; type: cell-based, human
Protocol: For Western blot analysis, LNCaP cells were plated in 6-well plate at 1×10^6 cells/well in charcoal stripped serum containing medium. Cells were treated with 10 nM DHT and harvested at designated time. Cells were harvested in MPER reagent (Pierce, Rockford, Ill.) containing 400 mM NaCl. […] The PVDF membrane was incubated in TBST (TBS with 0.1% Tween-20) with 3% milk for 15 minutes before the addition of the first antibody, rabbit anti-FKBP54 (Affinity Bioreagents, Inc). After overnight incubation, the PVDF membrane was washed 3 times with TBST and incubated with a second antibody, anti-rabbit-IgG coupled with horseradish peroxidase (Transduction Labs) for one hour. The PVDF membrane was then washed 3 times with TBST and protein was detected by using an enhanced chemiluminescence detection system (Pierce).

FKBP54 [3] = conditions: LNCaP cells, 10 nM DHT, mRNA frequency
Protocol: as §1

PSA [4] = conditions: LNCaP cells, 10 nM DHT, mRNA frequency
androgen receptor (AR) = assay: Transient transfection of COS-1 cells, GREe1bLuc luciferase reporter of AR transcriptional activity; type: cell-based; conditions: COS-1 cells transfected with FKBP54 expression vector
Protocol: Bars represent the mean of at least three independent experiments±SD. To determine the effect of FKBP54 on the transcriptional activity of androgen receptor (AR), COS-1 cells were transiently transfected with a reporter construct containing androgen receptor response element along with an expression vector encoding FKBP54. […] The next morning, medium were replaced with 2-ml DMEM. Indicated amount of DNA in 100 μl of DMEM was mixed with 6 μl of PLUS reagent (Gibco) and incubated at room temperature while 4 μl of lipofectamine was mixed with 100 μl of DMEM. […] After incubation with DNA for 4 hours, 2 ml of phenol red-free DMEM containing 10% charcoal-stripped fetal bovine serum was added and cells treated with indicated chemicals for additional 24 hours before being harvested. Luciferase activity was determined using Promega's STEADY GLO™ Luciferase Assay System.

CO[C@H]1C[C@@H]2CC[C@@H](C)[C@@](O)(O2)C(=O)C(=O)N2CCCC[C@H]2C(=O)O[C@H]([C@H](C)C[C@@H]2CC[C@@H](OC(=O)C(C)(CO)CO)[C@H](OC)C2)CC(=O)[C@H](C)/C=C(\C)[C@@H](O)[C@@H](OC)C(=O)[C@H](C)C[C@H](C)/C=C/C=C/C=C/1C [CCI-779]
sensitivity of prostate cancer cells (prostate cancer cells): sensitive

C[C@]12CCC(=O)C[C@@H]1CC[C@@H]1[C@@H]2CC[C@]2(C)[C@@H](O)CC[C@@H]12 [DHT, dihydrotestosterone]
growth of LNCaP cells (LNCaP cells): stimulated by a natural androgen DHT in a dose-dependent manner | PSA production (PSA [1]): increased in a dose-dependent manner | time at which PSA signal was first detected (PSA [1]): 12 h | time of maximal PSA level (PSA [1]): about 48 hs | FKBP54 protein expression (Western blot, blot not shown) (FKBP54 [2]): upregulated the FKB54 expression in a time-dependent manner | increase in level of FKBP54 expression (FKBP54 [2]; 24 hours post exposure): approximately two-fold | increase in level of FKBP54 expression (FKBP54 [2]; 72 hours post exposure): approximately 4 fold | Quantitative Expression Levels of FKBP54 (band density values) (FKBP54 [2]; time 0 hr): 8.5 | Quantitative Expression Levels of FKBP54 (band density values) (FKBP54 [2]; time 2 hr): 9.0 | Quantitative Expression Levels of FKBP54 (band density values) (FKBP54 [2]; time 6 hr): 9.8 | Quantitative Expression Levels of FKBP54 (band density values) (FKBP54 [2]; time 12 hr): 8.0 | Quantitative Expression Levels of FKBP54 (band density values) (FKBP54 [2]; time 24 hr): 12.0 | Quantitative Expression Levels of FKBP54 (band density values) (FKBP54 [2]; time 48 hr): 23.0 | Quantitative Expression Levels of FKBP54 (band density values) (FKBP54 [2]; time 72 hr): 30.2 | FKBP54 expression induction relative to baseline (FKBP54 [3]; 6 hours): 2 fold | FKBP54 expression induction relative to baseline (peak) (FKBP54 [3]; 24 hours): approximately 4 fold | PSA expression increase relative to control (PSA [4]; 12 hours): 3 fold | PSA expression increase relative to control (PSA [4]; 72 hours): approximately 4 fold

C[C@]1(O)CC[C@H]2[C@@H]3CCC4=CC(=O)CCC4=C3C=C[C@@]21C [R1881]
FKBP54 protein expression (Western blot, blot not shown) (FKBP54 [2]): could also upregulate the FKBP54 expression | increase in level of FKBP54 expression (FKBP54 [2]; 24 hours post exposure): ~10 fold | increase in level of FKBP54 expression (FKBP54 [2]; 72 hours post exposure): approximately 30 fold | Quantitative Expression Levels of FKBP54 (band density values) (FKBP54 [2]; time 0 hr): 1.8 | Quantitative Expression Levels of FKBP54 (band density values) (FKBP54 [2]; time 2 hr): 5.3 | Quantitative Expression Levels of FKBP54 (band density values) (FKBP54 [2]; time 6 hr): 5.9 | Quantitative Expression Levels of FKBP54 (band density values) (FKBP54 [2]; time 12 hr): 5.0 | Quantitative Expression Levels of FKBP54 (band density values) (FKBP54 [2]; time 24 hr): 20.1 | Quantitative Expression Levels of FKBP54 (band density values) (FKBP54 [2]; time 48 hr): 27.2 | Quantitative Expression Levels of FKBP54 (band density values) (FKBP54 [2]; time 72 hr): 34.4

B1: FKBP54: member of the immunophilin family, FK binding protein; transfected as expression vector encoding FKBP54 (protein, UniProt Q13451 1-457, looked up)
Peptidyl-prolyl cis-trans …: MTTDEGAKNNEESPTATVAEQGEDITSKKDRGVLKIVKRVGNGEETPMIGDKVYVHYKGKLSNGKKFDSSHDRNEPFVFSLGKGQVIKAWDIGVATMKKGEICHLLCKPEYAYGSAGSLPKIPSNATLFFEIELLDFKGEDLFEDGGIIRRTKRKGEGYSNPNEGATVEIHLEGRCGGRMFDCRDVAFTVGEGEDHDIPIGIDKALEKMQREEQCILYLGPRYGFGEAGKPKFGIEPNAELIYEVTLKSFEKAKESWEMDTKEKLEQAAIVKEKGTVYFKGGKYMQAVIQYGKIVSWLEMEYGLSEKESKASESFLLAAFLNLAMCYLKLREYTKAVECCDKALGLDSANEKGLYRRGEAQLLMNEFESAKGDFEKVLEVNPQNKAARLQISMCQKKAKEHNERDRRIYANMFKKFAEQDAKEEANKAMGKKTSEGVTNEKGTDSQAMEEEKPEGHV
increase of AR activity (androgen receptor (AR); in the presence of androgen (10^-9 M R1881)): more than 30% | effect on the reporter activity (androgen receptor (AR); without androgen): no effect
